PMC4970648, “Studies on 16α-Hydroxylation of Steroid Molecules and Regioselective Binding Mode in Homology-Modeled Cytochrome P450-2C11” (International Journal of Medicinal Chemistry, 2010)

Target: [3H]PROG 16α-hydroxylating activity by male rat liver microsomes (CYP2C11) (Rattus norvegicus, UniProt P08683)
Experiment: Inhibition of [3H]progesterone 16α-hydroxylation by adult male rat liver microsomes
Settings: not given
Experimental: Approximately 95-day-old male Wistar rats, castrated on the 70th day after birth, were used. The liver microsomes were prepared as previously described. The experiments were performed according to instrumental guidelines for the care and use of laboratory animals.
The metabolism by rat liver microsomes were examined, according to our previously described procedure. Briefly, the microsomal suspension (400–600 μg of protein/2.2 mL, total volume of the reaction mixture) was preincubated with [3H]PROG (20 nM) under the absence or presence of an unlabeled steroid (0.01–10 μM) at 36°C for 30 min. […] After the incubation, two identical samples were mixed and extracted with toluene. The toluene-extractable [3H]PROG metabolites (more than 90%) were isolated by various paper chromatographic systems and then identified by recrysallization method. Other miscellaneous procedures are described in our previous papers.

[3H]PROG 16α-hydroxylating activity by male rat liver microsomes (CYP2C11), sequence (P08683 whole entry): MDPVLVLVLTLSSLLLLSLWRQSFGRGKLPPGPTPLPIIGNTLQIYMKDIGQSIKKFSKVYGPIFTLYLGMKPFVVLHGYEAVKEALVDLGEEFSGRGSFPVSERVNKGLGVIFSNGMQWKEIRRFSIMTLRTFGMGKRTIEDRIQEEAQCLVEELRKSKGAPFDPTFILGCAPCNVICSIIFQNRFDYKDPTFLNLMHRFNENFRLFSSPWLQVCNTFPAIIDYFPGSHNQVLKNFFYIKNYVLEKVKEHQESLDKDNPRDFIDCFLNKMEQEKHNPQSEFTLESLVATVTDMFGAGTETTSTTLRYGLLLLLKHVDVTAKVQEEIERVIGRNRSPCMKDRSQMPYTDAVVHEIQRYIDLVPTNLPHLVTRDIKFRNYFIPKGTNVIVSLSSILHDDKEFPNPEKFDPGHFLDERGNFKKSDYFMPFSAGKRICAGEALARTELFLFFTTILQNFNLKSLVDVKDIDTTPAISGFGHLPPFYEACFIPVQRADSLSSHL

Compound	[3H]PROG16α-hydroxylation (IC40) [nM]
CC(=O)[C@H]1[C@H](O)C[C@H]2[C@@H]3CC[C@H]4C[C@@H](O)CC[C@]4(C)[C@H]3CC[C@@]21C [compound 36, 3β,16α-Dihydroxy-5α-pregnan-20-one]	1150

Same assay, conditions: 40% inhibition not reached at 10 μM of unlabeled steroid; male rat liver microsomes

Compound	[3H]PROG16α-hydroxylation (IC40), given as bound in μM
3β-Pregnan-3-one [compound 37]	>10 µM
CC(=O)[C@H]1CC[C@H]2[C@@H]3C[C@@H](O)C4=CC(=O)CC[C@]4(C)[C@H]3CC[C@]12C [compound 3, 6β-Hydroxyprogesterone]	>10 μM^c
CC(=O)[C@H]1CC[C@H]2[C@@H]3CCC4=CC(=O)CC[C@]4(C)[C@H]3[C@H](O)C[C@]12C [compound 5, 11α-Hydroxyprogesterone]	>10 µM
CC(=O)O[C@@H]1C[C@]2(C)[C@@H](C(C)=O)CC[C@H]2[C@@H]2CCC3=CC(=O)CC[C@]3(C)[C@H]21 [compound 6, 11α-Acetoxyprogesterone]	>10 µM
CC(=O)[C@H]1CC[C@H]2[C@@H]3CCC4=CC(=O)CC[C@]4(C)[C@H]3[C@@H](O)C[C@]12C [compound 7, 11β-Hydroxyprogesterone]	>10 µM
CC(=O)[C@H]1[C@H](O)C[C@H]2[C@@H]3CCC4=CC(=O)CC[C@]4(C)[C@H]3CC[C@@]21C [compound 8, 16α-Hydroxyprogesterone]	>10 µM
CC(=O)[C@H]1[C@H](C)C[C@H]2[C@@H]3CCC4=CC(=O)CC[C@]4(C)[C@H]3CC[C@@]21C [compound 9, 16α-Methylprogesterone]	>10 μM ^d
CC(=O)[C@H]1CC[C@H]2[C@@H]3CCC4=CC(=O)CC[C@]4(C)[C@H]3CC[C@]12CO [compound 10, 18-Hydroxyprogesterone]	>10 µM
CC(=O)[C@H]1CC[C@H]2[C@@H]3CCC4=CC(=O)CC[C@]4(CO)[C@H]3CC[C@]12C [compound 11, 19-Hydroxyprogesterone]	>10 µM
CC(=O)[C@H]1CC[C@H]2[C@@H]3CCC4=CC(=O)CC[C@@H]4[C@H]3CC[C@]12C [compound 12, 19-Norprogesterone]	>10 µM
C[C@H](O)[C@H]1CC[C@H]2[C@@H]3CCC4=CC(=O)CC[C@]4(C)[C@H]3CC[C@]12C [compound 13, 20α-Hydroxyprogesterone]	>10 µM
C[C@]12CC[C@H]3[C@@H](CCC4=CC(=O)CC[C@@]43C)[C@@H]1CC[C@@H]2C(=O)CO [compound 14, 21-Hydroxyprogesterone]	>10 µM
CC(=O)OCC(=O)C1CCC2C3CCC4=CC(=O)CCC4(C)C3CCC12C (stereo not shown) [compound 15, 21-Acetoxyprogesterone]	>10 µM
C[C@]12C[C@H](O)[C@H]3[C@@H](CCC4=CC(=O)CC[C@@]43C)[C@@H]1CC[C@@H]2C(=O)CO [compound 16, Corticosterone]	>10 µM
C[C@H](O)[C@H]1CC[C@H]2[C@@H]3CC=C4C[C@@H](O)CC[C@]4(C)[C@H]3CC[C@]12C [compound 21, 20α-Hydroxypregnenolone]	>10 µM
C[C@]12CC[C@H]3[C@@H](CC=C4C[C@@H](O)CC[C@@]43C)[C@@H]1CC[C@@H]2C(=O)COS(=O)(=O)O [compound 24, 21-Sulfatepregnenolone]	>10 µM
CC[C@H]1CC[C@H]2[C@@H]3CC=C4C[C@@H](O)CC[C@]4(C)[C@H]3CC[C@]12C [compound 25, 5-Pregnen-3β-ol]	>10 µM
CC(C)CCC[C@@H](C)[C@H]1CC[C@H]2[C@@H]3CC=C4C[C@@H](O)CC[C@]4(C)[C@H]3CC[C@]12C [compound 26, Cholesterol]	>10 µM
CC(=O)[C@H]1CC[C@H]2[C@@H]3CC[C@H]4C[C@H](OS(=O)(=O)O)CC[C@]4(C)[C@H]3CC[C@]12C [compound 31, 3α-Sulfate-5 α -pregnan-20-one]	>10 µM
C[C@]12CC[C@H]3[C@@H](CCC4=CC(=O)CC[C@@]43C)[C@@H]1CC[C@@H]2C(=O)O [compound 39, 4-Androsten-3-one; 17-β-carboxylaic acid]	>10 μM^e
CC(=O)O[C@H]1CC[C@H]2[C@@H]3CCC4=CC(=O)CC[C@]4(C)[C@H]3CC[C@]12C [compound 42, 17β-Acetoxytestosterone]	>10 µM
C[C@]12CC[C@H](OS(=O)(=O)O)CC1=CC[C@@H]1[C@@H]2CC[C@]2(C)C(=O)CC[C@@H]12 [compound 44, Dehydroepiandrosterone-3-sulfate]	>10 µM
C[C@@]12CCC[C@H]1[C@@H]1CC[C@H]3CCCC[C@]3(C)[C@H]1CC2 [compound 46, 5α-Androstane]	>10 µM

Same assay, conditions: IC40 of progesterone 1 relative to IC40 of 33

Compound	observed inhibitory potency index against [3H]PROG 16α-hydroxylation
CC(=O)[C@H]1CC[C@H]2[C@@H]3CC[C@@H]4C[C@H](O)CC[C@]4(C)[C@H]3CC[C@]12C [compound 33, 3α-Hydroxy-5 β -pregnan-20-one]	31.46

Same assay, conditions: molar concentration of unlabeled steroid causing 40% inhibition; [3H]PROG 20 nM; unlabeled steroid 0.01–10 μM; male rat liver microsomes

Compound	[3H]PROG16α-hydroxylation (IC40) [nM]
CC(=O)[C@H]1CC[C@H]2[C@@H]3CCC4=CC(=O)CC[C@]4(C)[C@H]3CC[C@]12C [compound 1, Progesterone]	755
CC(=O)[C@H]1CC[C@H]2[C@@H]3CCC4=C[C@@H](O)CC[C@]4(C)[C@H]3CC[C@]12C [compound 2, 3β-Hydroxyprogesterone]	255
CC(=O)O[C@@H]1C[C@H]2[C@@H]3CC[C@H](C(C)=O)[C@@]3(C)CC[C@@H]2[C@@]2(C)CCC(=O)C=C12 [compound 4, 6β-Acetoxyprogesterone]	740
CC(=O)[C@H]1CC[C@H]2[C@@H]3CC=C4C[C@@H](O)CC[C@]4(C)[C@H]3CC[C@]12C [compound 17, Pregnenolone]	142
CC(=O)O[C@H]1CC[C@@]2(C)C(=CC[C@H]3[C@@H]4CC[C@H](C(C)=O)[C@@]4(C)CC[C@@H]32)C1 [compound 18, Pregnenolone-3-acetate]	800
CC(=O)C1CCC2C3CC=C4CC(OS(=O)(=O)O)CCC4(C)C3CCC12C (stereo not shown) [compound 19, Pregnenolone-3-sulfate]	195
C[C@]12CC[C@H]3[C@@H](CC=C4C[C@@H](O)CC[C@@]43C)[C@@H]1CC[C@@H]2C(=O)CO [compound 22, 21-Hydroxypregnenolone]	462
CC(=O)OCC(=O)[C@H]1CC[C@H]2[C@@H]3CC=C4C[C@@H](O)CC[C@]4(C)[C@H]3CC[C@]12C [compound 23, 21-Acetoxypregnenolone]	600
CC(=O)[C@H]1CC[C@H]2[C@@H]3CC[C@H]4CC(=O)CC[C@]4(C)[C@H]3CC[C@]12C [compound 27, 5α-Pregnan-3,20-dione]	720
CC(=O)[C@H]1CC[C@H]2[C@@H]3CC[C@@H]4CC(=O)CC[C@]4(C)[C@H]3CC[C@]12C [compound 28, 5β-Pregnan-3,20-dione]	395
CC(=O)[C@H]1CC[C@H]2[C@@H]3CC[C@H]4C[C@H](O)CC[C@]4(C)[C@H]3CC[C@]12C [compound 29, 3α-Hydroxy-5 α -pregnan-20-one]	62
CC(=O)O[C@@H]1CC[C@@]2(C)[C@@H](CC[C@@H]3[C@@H]2CC[C@]2(C)[C@@H](C(C)=O)CC[C@@H]32)C1 [compound 30, 3α-Acetoxy-5 α -pregnan-20-one]	410
CC(=O)[C@H]1CC[C@H]2[C@@H]3CC[C@H]4C[C@@H](O)CC[C@]4(C)[C@H]3CC[C@]12C [compound 32, 3β-Hydroxy-5 α -pregnan-20-one]	225
CC(=O)[C@H]1CC[C@H]2[C@@H]3CC[C@@H]4C[C@H](O)CC[C@]4(C)[C@H]3CC[C@]12C [compound 33, 3α-Hydroxy-5 β -pregnan-20-one]	24
CC(=O)[C@H]1CC[C@H]2[C@@H]3CC[C@@H]4C[C@@H](O)CC[C@]4(C)[C@H]3CC[C@]12C [compound 34, 3β-Hydroxy-5 β -pregnan-20-one]	170
CC(=O)[C@H]1CC[C@H]2[C@@H]3CC[C@H]4C[C@H](O)CC[C@]4(C)[C@H]3[C@@H](O)C[C@]12C [compound 35, 3α,11β-Dihydroxy-5α-pregnan-20-one]	150
C[C@]12CCC(=O)C=C1CC[C@@H]1[C@@H]2CC[C@]2(C)C(=O)CC[C@@H]12 [compound 38, 4-Androsten-3,17-dione]	1000
COC(=O)[C@H]1CC[C@H]2[C@@H]3CCC4=CC(=O)CC[C@]4(C)[C@H]3CC[C@]12C [compound 40, 4-Androsten-3-one;17-β-carboxylaic acid methyl ester]	801
C[C@]12CC[C@H]3[C@@H](CCC4=CC(=O)CC[C@@]43C)[C@@H]1CC[C@@H]2O [compound 41, Testosterone]	1450
C[C@]12CC[C@H](O)CC1=CC[C@@H]1[C@@H]2CC[C@]2(C)C(=O)CC[C@@H]12 [compound 43, Dehydroepiandrosterone]	680
C[C@]12CC[C@H]3[C@@H](CC=C4C[C@@H](O)CC[C@@]43C)[C@@H]1CC[C@@H]2O [compound 45, 5-Androstenediol]	640
